According to patent publication US20210161804A1, “FLUTICASONE AND VILANTEROL FORMULATION AND INHALER” (KINDEVA DRUG DELIVERY L.P., priority 2018, published 2021):

Key:
[1] = Through life delivered dose (unit spray collection apparatus); type: physicochemical; conditions: beginning, middle, end of unit, 3 MDIs, 28.3 L/minute
Protocol: The through life delivered dose was determined using standard unit spray collection apparatus (USCA) fitted with a filter. For each determination, an MDI was attached to the USCA using a coupler. Immediately prior to attachment, the MDI was vigorously shaken. Prior to collection of the test sample, the MDI was primed by actuating four times and before each priming actuation the MDI was vigorously shaken. For each example tested, three MDIs were used. Each MDI was tested with a single actuation into the instrument at the beginning, middle, and end of the unit resulting in 3 actuations per MDI (9 actuations total). The flow rate through the equipment was regulated to 28.3 L/minute+/−0.5 L/minute. The test sample deposited in the USCA was collected by rinsing with a known volume of collection solvent. The recovered samples were then analyzed for sample content using an HPLC assay with reference to a known standard. An HPLC instrument with a UV detector (220 nm at 0 minutes, 240 nm at 5 minutes) and a symmetry shield RP18, 150 mm×4.6 mm (3.5 microns) column (temperature 25° C.) was used. The mobile phase was 10 mM SDS (sodium dodecyl sulphate), 60:40 (v/v) acetetonitrile:50 mM NH4OAc (ammonium acetate), pH 5.50. The injection volume was 50 microliters and the flow rate was 1.0 mL/minute.

[2] = Next Generation Impactor (NGI) aerodynamic particle size distribution; type: physicochemical
Protocol: The aerodynamic particle size distribution emitted from each MDI was evaluated using a Next Generation Impactor Instrument (MSP Corporation, Shoreview, Minn.). For each test, an MDI was attached to the throat component (Emmace anatomical throat, Emmace Consulting, Lund, Sweden) of the NGI instrument and actuated 6 times into the instrument. Prior to each actuation the MDI was vigorously shaken Immediately prior to attachment, the MDI was primed by actuating 4 times. Prior to each priming shot the MDI was vigorously shaken. The flow rate through the instrument during testing was regulated at 30 L/minute. The test sample (fluticasone furoate and vilanterol trifenatate) deposited on the valve stem, actuator, throat assembly (Emmace anatomical throat), individual uncoated collection cups 1-7, micro-orifice collector (MOC), and final filter component was collected by rinsing each individual component with a known volume of collection solvent. The recovered samples were then analyzed for sample content using an HPLC assay with reference to a known standard. An HPLC instrument with a UV detector (220 nm at 0 minutes, 240 nm at 5 minutes) and a symmetry shield RP-18, 4.6-150 mm column (25° C. column temp) was used. The mobile phase was 10 mM SDS, 60:40 (v/v) […]:50 mM NH4OAc, pH 5.5). The injection volume was 50 microliters and the flow rate was 1.0 mL/min.
In Table 1 the fine particle mass (FPM), impactor sized mass (ISM), mass median aerodynamic diameter (MMAD), and throat hold up data for fluticasone furoate (FF) and vilanterol trifenatate (VT) is presented. At each time point 3 individual MDIs were tested and the result is presented as the mean value.
Total Ex-valve content was determined as the sum of the sample content from all twelve analyzed components (valve stem through filter) (reported as micrograms/actuation).
Throat hold up was determined as the ratio of the sample content from the throat assembly divided by the total ex-valve content.
Aerodynamic particle size from a Relvar® Ellipta® 92/22 (fluticasone furoate/vilanterol trifenatate) dry powder inhaler was evaluated as described above for NGI studies with the following changes. The Relvar device was not primed prior to analysis, nor was it shaken prior to actuation. For each test the Relvar was actuated once. An adaptor was prepared and used to obtain a good fit between device mouthpiece and the Emmace throat. A flow rate of approximately 80 L/min was used to achieve a 4 kPa pressure drop in the NGI. A pre-separator was used between the throat assembly and cup 1. Cups 1 to 7 were pre-coated with 50:50 (v/v) glycerol:methanol.
In tables 1-8 above, FPM and ISM are reported as micrograms (mcg) per actuation and MMAD is reported in microns (um). FPM (Fine Particle Mass) was determined as the sum of the sample content determined for cups 3-7, the MOC, and the filter. ISM (Impactor Sized Mass) was determined as the sum of the sample content determined for cups 2-7, the MOC, and the filter. In the examples, the concentrations of fluticasone furoate, vilanterol trifenatate, ethanol, and HFA-227 in the suspension formulations are reported as weight percent (wt. %).

[3] = MDIs of Example 8 (58 microliter primeless valve, no ethanol, HFA-227)
[4] = MDIs of Example 9 (58 microliter primeless valve, 0.05% ethanol, HFA-227)
[5] = MDIs of Example 10 (58 microliter primeless valve, 0.5% ethanol, HFA-227)
[6] = Comparative Example 1: Relvar Ellipta 92/22 dry powder inhaler, actuated once, approximately 80 L/min (4 kPa), pre-separator
[7] = Comparative Example 1: Relvar Ellipta 92/22 dry powder inhaler, approximately 80 L/min (4 kPa), pre-separator
[8] = MDI of Example 1: FF MMD about 3.7 microns, VT MMD about 1.4 microns, HFA-227, 30 L/minute
[9] = MDI of Example 1: FF MMD about 3.7 microns, VT MMD about 1.4 microns, HFA-227, 30 L/minute, Emmace anatomical throat
[10] = MDI of Example 1: FF MMD about 3.7 microns, VT MMD about 1.4 microns, HFA-227, per actuation, 30 L/minute
[11] = MDI of Example 1: FF MMD about 3.7 microns, VT MMD about 1.4 microns, HFA-227, per actuation, 30 L/minute, mean of 3 MDIs
[12] = MDI of Example 2: FF MMD about 2.9 microns, VT MMD about 1.4 microns, HFA-227, 30 L/minute
[13] = MDI of Example 2: FF MMD about 2.9 microns, VT MMD about 1.4 microns, HFA-227, per actuation, 30 L/minute
[14] = MDI of Example 3: FF MMD about 3.7 microns, VT MMD about 4.2 microns, HFA-227, 30 L/minute
[15] = MDI of Example 3: FF MMD about 3.7 microns, VT MMD about 4.2 microns, HFA-227, per actuation, 30 L/minute
[16] = MDI of Example 4: FF MMD about 2.9 microns, VT MMD about 3.4 microns, HFA-227, 30 L/minute
[17] = MDI of Example 4: FF MMD about 2.9 microns, VT MMD about 3.4 microns, HFA-227, per actuation, 30 L/minute
[18] = MDI of Example 5: FF micronized MMD about 2.0 microns, VT high pressure homogenized MMD about 1.4 microns, HFA-227, 30 L/minute
[19] = MDI of Example 5: FF micronized MMD about 2.0 microns, VT high pressure homogenized MMD about 1.4 microns, HFA-227, per actuation, 30 L/minute
[20] = MDI of Example 6: FF MMD about 2.9 microns, VT MMD about 1.4 microns, 0.05% ethanol, HFA-227, 30 L/minute
[21] = MDI of Example 6: FF MMD about 2.9 microns, VT MMD about 1.4 microns, 0.05% ethanol, HFA-227, per actuation, 30 L/minute
[22] = MDI of Example 7: FF MMD about 2.9 microns, VT MMD about 1.4 microns, 0.5% ethanol, HFA-227, 30 L/minute
[23] = MDI of Example 7: FF MMD about 2.9 microns, VT MMD about 1.4 microns, 0.5% ethanol, HFA-227, per actuation, 30 L/minute

Structure (SMILES)	mean through life delivered dose [1, 3] [micrograms/actuation]	mean through life delivered dose [1, 4] [micrograms/actuation]	mean through life delivered dose [1, 5] [micrograms/actuation]	FPM (fine particle mass) [2, 6] [µg]	ISM (impactor sized mass) [2, 6] [µg]	MMAD (mass median aerodynamic diameter) [2, 7] [um]	Throat hold up [2, 7] [%]	MMAD (mass median aerodynamic diameter) [2, 8] [um]	Throat hold up [2, 9] [%]	ISM (impactor sized mass) [2, 10] [µg]	FPM (fine particle mass) [2, 11] [µg]	MMAD (mass median aerodynamic diameter) [2, 12] [um]	Throat hold up [2, 12] [%]	FPM (fine particle mass) [2, 13] [µg]	ISM (impactor sized mass) [2, 13] [µg]	MMAD (mass median aerodynamic diameter) [2, 14] [um]	Throat hold up [2, 14] [%]	FPM (fine particle mass) [2, 15] [µg]	ISM (impactor sized mass) [2, 15] [µg]	MMAD (mass median aerodynamic diameter) [2, 16] [um]	further results
C[C@@H]1C[C@H]2[C@@H]3C[C@H](F)C4=CC(=O)C=C[C@]4(C)[C@@]3(F)[C@@H](O)C[C@]2(C)[C@@]1(OC(=O)c1ccco1)C(=O)SCF [FF, fluticasone furoate]	57.1	55.5	58.0	26.5	31.5	3.4	26.0	3.5	52.8	27.7	19.6	3.1	38.8	27.0	35.9	4.0	47.0	25.0	37.5	3.2	Throat hold up [2, 16]: 43.0%; FPM (fine particle mass) [2, 17]: 28.5 µg; ISM (impactor sized mass) [2, 17]: 38.4 µg; MMAD (mass median aerodynamic diameter) [2, 18]: 2.9 um; Throat hold up [2, 18]: 31.5%; FPM (fine particle mass) [2, 19]: 30.2 µg; ISM (impactor sized mass) [2, 19]: 35.7 µg; MMAD (mass median aerodynamic diameter) [2, 20]: 3.2 um; Throat hold up [2, 20]: 48.6%; FPM (fine particle mass) [2, 21]: 23.1 µg; ISM (impactor sized mass) [2, 21]: 31.5 µg; MMAD (mass median aerodynamic diameter) [2, 22]: 3.0 um; Throat hold up [2, 22]: 46.0%; FPM (fine particle mass) [2, 23]: 26.3 µg; ISM (impactor sized mass) [2, 23]: 34.9 µg
OCc1cc([C@@H](O)CNCCCCCCOCCOCc2c(Cl)cccc2Cl)ccc1O [VT, vilanterol trifenatate]	13.8	13.3	14.4	11.6	12.3	1.8	16.1	1.9	34.0	10.8	10.0	2.0	28.5	9.9	10.8	3.7	43.4	6.5	8.9	3.1	Throat hold up [2, 16]: 41.0%; FPM (fine particle mass) [2, 17]: 7.5 µg; ISM (impactor sized mass) [2, 17]: 9.8 µg; MMAD (mass median aerodynamic diameter) [2, 18]: 2.6 um; Throat hold up [2, 18]: 31.1%; FPM (fine particle mass) [2, 19]: 8.4 µg; ISM (impactor sized mass) [2, 19]: 9.5 µg; MMAD (mass median aerodynamic diameter) [2, 20]: 2.0 um; Throat hold up [2, 20]: 37.8%; FPM (fine particle mass) [2, 21]: 8.9 µg; ISM (impactor sized mass) [2, 21]: 9.9 µg; MMAD (mass median aerodynamic diameter) [2, 22]: 2.0 um; Throat hold up [2, 22]: 36.1%; FPM (fine particle mass) [2, 23]: 10.3 µg; ISM (impactor sized mass) [2, 23]: 11.2 µg
